Columns and labels:
Type in all cases: cell-based
MTT cell viability assay = conditions: human, MTT, 24 h, concentration required to inhibit cell proliferation by 50%, mean ± SD
Method: (§1) The cytotoxic effect of coumarins 2a–k was tested on several cancer and normal cell lines: lung cancer cell line (SK-MES-1), thyroid cancer cell lines (K-1; B-CPAP ant TPC-1), lung fibroblast (MRC-5) and thyroid normal cell line (Nthy-ori-3-1) by MTT (3-[4,5-dimethylthiazol-2-yl]-2,5 diphenyltetrazolium bromide) assay.
(§2) The papillary thyroid carcinoma (PTC)-derived cell lines (TPC-1 and B-CPAP) were kindly provided by Dr. Fusco (Medical School, University Federico II of Naples, Naples, Italy). K-1 PTC-derived cell line and non-tumorigenic thyroid Nthy-ori-3-1 cell line were purchased from Health Protection Agency Culture Collections. The PTC-derived cell lines were maintained in DMEM/F12 (Gibco-BRL. Life Technologies, Milan, Italy)] supplemented with 10% fetal bovine serum (Gibco-BRL) at 37 °C in humidified 5% CO2. SK-MES-1 and MRC-5 were purchased from American Type Culture Collection (ATCC) and were maintained in Mem-E medium, supplemented with 10% fetal bovine serum, 100 units/mL penicillin G, and 100 μg/mL streptomycin (Gibco-BRL) at 37 °C in humidified 5% CO2.
(§3) The effect of test compounds on the viability of cells was detected by MTT assay. The thyroid cells (7.5 × 10^3 cells/mL), SK-MES-1, and MRC-5 (8 × 10^4 cells/mL) were seeded into a 96-well plate and allowed to adhere for 16 h to culture plates before the addition of the compounds.
(§4) Then, compounds were added at different concentrations (0.8–100 μM), and cells were further incubated for 24 h. Cells with no treatment were used as a negative control. After incubation, cells were treated with MTT solution for 3 h at 37 °C. Then, the MTT solution was removed, and 150 µL of DMSO was added to the wells. The absorbances were measured at 570 nm using a TECAN microplate reader (Infinite 200, Tecan, Salzburg, Austria). Viability data were reported as % of control (untreated cells) for each cell line.

[1] = tested on: K-1 thyroid cancer cell line; assay: MTT cell viability assay; conditions: K-1; MTT, 24 h; concentration required to inhibit cell proliferation by 50%; mean ± SD; read-out: CC50
Method: as §1, §2, §3, §4

[2] = tested on: SK-MES-1 lung cancer cell line; assay: MTT cell viability assay; conditions: Homo sapiens; SK-MES-1; MTT, 24 h; concentration required to inhibit cell proliferation by 50%; mean ± SD; read-out: CC50
Method: as §1, §2, §3, §4

[3] = tested on: Nthy-ori-3-1 normal thyroid cells; assay: Annexin V-FITC/PI apoptosis assay by flow cytometry; conditions: 20 μM, 24 h
Method: (§5) To determine whether the two studied coumarins 2k and 2h, induce cell death through apoptosis or necrosis, we performed double staining with fluorescent Annexin V-FITC/propidium iodide (PI) apoptosis detection kit in TPC-1 and Nthy-ori-3-1 as control cells. This assay is based on the ability of Annexin to recognize phosphatidylserine (PS), a membrane phospholipid exposed on the cell surface of apoptotic cells, while PI is able to bind the DNA of necrotic cells. Thanks to this combination, […] cell populations are obtained: cells negative for Annexin V-FITC and PI indicate live cells, Annexin V-FITC-positive/PI-negative and Annexin V-FITC-positive/PI-positive indicate early and late apoptotic cells, while cells negative for Annexin V-FITC and PI-positive are necrotic.
(§6) To investigate cell death induced by coumarins treatment, a flow cytometric analysis using the cell apoptosis kit Annexin V/propidium iodide (PI) double staining uptake (Life Technologies, Monza, Italy) was employed. Control and PTC-derived cells, at the density of 5 × 10^4 cells/mL, were seeded in 6-well plates (Corning) with complete DMEM/F12. First, the cells were treated with 20 µM of coumarins for 24 h. Cells were washed once with PBS 1X and stained according to the kit’s protocol. Stained cells were then analyzed by flow cytometry, measuring the fluorescence emission at 530 and 620 nm using a 488 nm excitation laser (MoFloAstrios EQ, Beckman Coulter). Cell apoptosis was analyzed using Software Summit Version 6.3.1.1, Beckman Coulter.

TPC-1 cells [4] = assay: as above; conditions: for total apoptotic cells: 20 μM, 24 h, untreated cells 10%; for viability at 20 µM: Homo sapiens, TPC1, 24 h, untreated cells 87%, read-out: viable cells
Method: as §5, §6

TPC-1 cells [5] = assay: Cell cycle analysis by flow cytometry (PI/RNase staining); conditions: 20 µM, 24 h, compared with untreated cells
Method: Among the potential mechanisms involved in the treatment of cancer, there is the arrest of the cell cycle. To detect whether the cytotoxicity of coumarins 2k and 2h resulted from cell cycle progression, the effects on the cell cycle of TPC-1 cells were analyzed by flow cytometry after labeling with PI (propidium iodide)/RNase Staining Buffer detection kit. […] According to apoptosis results, the cell cycle arrest could be responsible for the cytotoxicity in cancer cells. In the present study, it was observed that coumarin 2k determined cell arrest of TPC-1 cells in the G2/M phase, indicating the apoptotic mode of cell death and inhibition of DNA synthesis (S phase reduction). This finding is consistent with previous investigations reporting that coumarins able to induce cytotoxicity by inducing G2/M and S phases arrest in different cancer cell lines.
The cells were seeded (5 × 10^4 cells/mL) in six-well plates (Corning, Tewksbury, MA, USA). After 24 h, they were treated with coumarins (20 µM) for 24 h. Cell cycle analysis was performed by using the Invitrogen™ FxCycle™ PI/RNase Staining Solution (according to the manufacturer’s instructions, Thermo Fisher Scientific, Waltham, MA, USA), and then the DNA content was evaluated by flow cytometry (MoFloAstrios EQ, Beckman Coulter, Brea, CA, USA). The analysis of cell cycle phase distribution was accomplished via Kaluza Flow Cytometry Analysis Software (Software Version 1.2, Beckman Coulter) by setting 3 gates in each single parameter histogram: G0/G1, S, and G2/M.

[6] = Nthy-ori-3-1 normal thyroid cells, Nthy-ori-3-1

Row | Compound | CC50 at 24 h (MTT cell viability assay; MRC-5 lung fibroblasts, MRC-5) [µM] | CC50 at 24 h (MTT cell viability assay; [6]) [µM] | CC50 [1] [µM] | CC50 [2] [µM] | induction of apoptosis [3] | total apoptotic cells (TPC-1 cells [4]) [%] | viability at 20 µM (TPC-1 cells [4]) [%] | effect on G2/M phase cell population (TPC-1 cells [5]) | effect on S phase cell population (TPC-1 cells [5])
1 | N#Cc1cc2cc(Br)cc(Br)c2oc1=O [2h, 6,8-dibromo-2-oxo-2H-chromene-3-carbonitrile] | > 100 | > 100 | 60 ± 3 | > 100 | No significant induction of apoptosis | 18 | 77.7 | same trend | 
2 | N#Cc1cc2cc(I)cc(I)c2oc1=O [2k, 6,8-diiodo-2-oxo-2H-chromene-3-carbonitrile] | > 100 | > 100 | 57 ± 5 | > 100 | No significant induction of apoptosis | 34 | 62 | increase in TPC-1 cells in the G2/M phase | decreases the cell population in the S phase

Reference: paper PMC9786284, “Synthesis and Antiproliferative Effect of Halogenated Coumarin Derivatives” (Molecules, 2022)
